Data on 1 compound can be found in US11129782B2, “Derivatives of PPD useful for coloring hair and skin” (National University of Singapore, priority 2017, dated 2021).

Data set [1] deals with IL-8. Put plainly: IL-8 ELISA on THP-1 cell supernatants. The format is cell-based, human. To be noted: preliminary ELISA, CV75. On the technique in general: An ELISA detects its analyte on a solid surface through an enzyme-linked reagent.
Data set [2] can be described thus: Skin permeation in vertical Franz diffusion cells. The format is in vitro ADME, porcine. In a few lines: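 Dermatomed porcine ear skin (~1.0 mm, barrier checked by TEWL) in vertical Franz cells at 37 °C, 0.64 cm^2 area, PBS receptor, donor of 1% w/v solutions in argon-purged water (n=3). Receptor sampled over 8 h with mass balance, LCMS quantification; flux and permeability coefficients from steady-state Fick's law fits.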

Data set [3] deals with cysteine and lysine peptides. Put plainly: Direct Peptide Reactivity Assay, mean of cysteine and lysine depletion (FIG. 12).
Procedure: Direct reactivity of test chemical to lysine-based synthetic peptide was determined in reactions containing 100 mM ammonium acetate buffer (pH 10.2). The final concentration of lysine peptide was 20 μM in a final reaction volume of 0.3 ml. Direct reactivity of test chemicals to cysteine-based synthetic peptide was determined in 100 mM Sodium Phosphate buffer of pH 7.5.
For the DPRA, incubation mixtures were prepared using each peptide to test compound ratios of both 1:10 for cysteine peptide and 1:50 for lysine peptide, according to Table 19. […] Sample reactions were initiated by adding 3 μl of a test chemical stock solution for cysteine and 15 μl stock solution for lysine peptide. These mixtures were then placed in a temperature-controlled shaking incubator at 25° C.
At each time point (20 mins/24 hours), the incubation mixtures were quenched with 75 μL of 95% ACN/H2O, and mildly vortexed (600 rpm, 3 seconds). For Lysine DPRA experiment, 10 μl of aliquot was diluted with 2% ACN/H2O, vortexed and stored at −80° C. until analysis by LC-MS/MS. For cysteine DPRA, an additional step was performed. 10 μl of cysteine reaction mixture, at time points 20 min and 24 h were diluted in 180 μl of 2% ACN/H2O. To which, a 10 μl aliquot of a 16 mM dithiothreitol solution (prepared in water) was then added, and samples were heated in a 45° C. oven for 30 min, then allowed to cool to room temperature prior to analysis. The peptide depletion (PD) percentage was obtained using this equation.
Data set [4] deals with lysine peptide (Ac-RFAAKAA-COOH). Put plainly: Direct Peptide Reactivity Assay, lysine peptide. As to conditions: for % of Lysine depletion, Avg / % of Lysine depletion, Rep 2 / % of Lysine depletion, Rep 3 / Reactivity Class: 1:50; for % of Lysine depletion, Rep 1: peptide 0.02 mM : test chemical 1 mM (1:50); for Reactivity Class: lysine. On the procedure: The mass spectrometric analysis was performed by use of a AB SCIEX QTRAP 5500 tandem mass spectrometry (MS/MS) system (AB SCIEX, Framingham, Mass., USA) operating in triple quadrupole positive mode (ESI+) equipped with an AB Sciex Turbo Ion Spray interface. Acquisition and analysis of data were performed with Analyst software ver. 1.6.2 (Applied Biosystems).

Take `Nc1ccc(N)cc1` [PPD, para-phenylenediamine, reference compound]: the IL-8 expression result in data set [1] is reported as “increased expression”. Besides, in data set [2] (1% W/V applied, 8 h), the “% Parent compound Penetrated (mean)” value worked out at 0.162% and the “% converted to metabolite (mean)” value amounted to 3.17%. The “Mass balance in the Franz cells” value in data set [2] (8 h) is recorded as greater than 99%. Also, in data set [2] (mean), the “Jss · 10^4 (steady state flux)” value was determined as 4.3 mg cm^−2 h^−1 and the “tlag (lag time)” value is on record as 4.2 h. The recovery at 8 h, 1 % w/v in data set [2] (pig, 1% W/V applied, 8 h, read-out: % Parent compound Recovery (mean)) came out at 90.3%. Besides, in data set [2] (pig, mean, read-out: kp · 10^5 (steady state permeability coefficient) (converted)), the Papp at 8 h, 1 % w/v was 1190 ×10⁻⁶ cm/s. Further, in data set [2] (steady state, mean), the “Dm · 10^4 (diffusion coefficient in skin)” value is recorded as 5.00 cm^−2 h^−1. The “Ks/d (skin-donor partition coefficient)” value in data set [2] (steady state, mean, 1% w/v in water, 8 h) came out at 0.010. Further, the “Sensitizing potential predicted from mean peptide depletion” value in data set [3] (cysteine 1:10 / lysine 1:50 model) is given as “strong sensitizer”. In addition, the Mean peptide depletion in data set [3] (mean of cysteine (1:10) and lysine (1:50), FIG. 12) is 55.5%. In data set [4] (20 min), the “% of Lysine depletion, Avg” value was determined as 14.6%; the “% of Lysine depletion, Rep 2” value was 14.4%; the “% of Lysine depletion, Rep 3” value was found to be 14.6%; the “% of Lysine depletion, Rep 1” value is on record as 14.9%. In addition, the “Reactivity Class” value in data set [4] (20 min) is “Low”. Further, in data set [4] (24 h), the “% of Lysine depletion, Avg” value was 33.3%; the “% of Lysine depletion, Rep 2” value is listed as 33.1%; the “% of Lysine depletion, Rep 3” value is listed as 33.9%; the “% of Lysine depletion, Rep 1” value stood at 32.8%. For the same compound, the “Reactivity Class” value in data set [4] (24 h) was “Moderate”.
